Source: patent US20210231673A1, “METHODS AND COMPOSITIONS FOR DETECTION AND QUANTIFICATION OF SMALL MOLECULES AND OTHER ANALYTES” (President and Fellows of Harvard College, priority 2018, published 2021)

How the values were obtained:
Type in all cases: binding
[1] = Competitive single molecule array assay, BSA-cortisol MBs (two-step, single-plex); settings: single-plex comparison to IL-6/cortisol multiplex
Description: A two-step assay configuration was chosen when hapten-BSA-coated beads were used. Specifically, hapten-BSA-coated capture beads were diluted in Bead Diluent (Quanterix) to a concentration of 5,000 beads/μL. Biotinylated detector antibodies were diluted in Detector Diluent (Quanterix) to the desired concentration (1 pM for anti-cortisol antibodies, and 1 nM for anti-PGE2 antibodies). SβG concentrate was diluted to 200 pM in SβG Diluent (Quanterix). Cortisol and PGE2 standards were serially diluted to desired concentrations in Sample Diluent. The reagents including beads, detector, and SβG were placed in plastic bottles (Quanterix). The samples were loaded onto a 96-well plate (Quanterix). […] Images of the arrays were analyzed and AEB (average enzyme per bead) values were calculated by the software in the SIMOA HD-1 ANALYZER™.
(§1) Standard curves were obtained by plotting the signal responses (AEB and OD) against the logarithm of analyte concentrations using Origin software (Origin 9.5). […] The limit of detection (LOD) was calculated as three standard deviations (SDs) above the background. […]
We applied single molecule array assay to small molecule detection by developing a bead-based competitive protocol. […] The beads labeled with detection probes were then labeled with an enzyme, SβG, via biotin-streptavidin interaction and detected by enzymatic readout on the SIMOA™ platform. […]

[2] = system: anti-cortisol antibody (XM210); test: Multiplex single molecule array assay for IL-6 and cortisol: cortisol (competitive); settings: simultaneous detection of IL-6 and cortisol
Description: A two-step assay configuration was used for simultaneous detection of IL-6 and cortisol. BSA-cortisol coated beads were mixed with anti-IL6 capture beads (1:1 in number). The mixed beads were diluted to a concentration of 10,000 beads/μL. A mixture of detection antibodies, 10 pM for anti-cortisol antibody (XM210) and 1 nM for anti-IL6 detector, was prepared in Detector Diluent. A mixture of cortisol and IL-6 standards was serially diluted to desired concentrations. All the other conditions were the same as the single-plex assay.
Standard curves were obtained by plotting the signal responses (AEB and OD) against the logarithm of analyte concentrations using Origin software (Origin 9.5). The 4-parameter logistic equation y=A2+(A1−A2)/[1+(x/x0)^P] was used for curve fitting in the whole concentration range, where A1 is the maximum signal without analyte, A2 is the minimum signal at infinite concentration, p is the curve slope at the inflection point, and x0 is the IC50 (analyte concentration causing a 50% inhibition of the maximum response). The lower the IC50 is, the higher the sensitivity is. The limit of detection (LOD) was calculated as three standard deviations (SDs) above the background. All measurements were performed in triplicate. […]

[3] = system: anti-cortisol antibody; test: Two-plex single molecule array assay for PGE2 and cortisol: cortisol; settings: simultaneous detection of cortisol and PGE2
Description: (§2) Carboxylated 2.7 μm paramagnetic beads (˜4×10^8), non-encoded for single-plex assays and dye-encoded (488 nm and 647 nm) for multiplex assays, were washed three times with 600 μL of bead wash buffer (0.1% TWEEN® 20 in 1× PBS, pH 7.4) and twice with 400 μL of MES buffer (50 mM MES, pH 6.2). 1 mg/mL EDC in MES buffer was freshly prepared and 200 μL was added to the beads and mixed well. The beads were activated on a shaker for 30 min. After activation, the beads were washed once with 200 μL of MES buffer. 200 μL of 10 mg/mL BSA or BSA-cortisol conjugate in MES buffer were added to the activated beads. The beads were incubated at room temperature with shaking for 2 h, and then washed three times with bead wash buffer. […] The beads were counted using a Beckman-Coulter MULTISIZER™.
(§3) A two-step assay configuration was chosen when hapten-BSA-coated beads were used. […] Images of the arrays were analyzed and AEB (average enzyme per bead) values were calculated by the software in the SIMOA HD-1 ANALYZER™.
as §1

[4] = Conventional competitive ELISA for cortisol (BSA-cortisol coated plate); settings: cortisol concentration causing 50% inhibition of maximum response
Description: The high-binding 96-well microtiter plate was coated with BSA-cortisol conjugate in PBS (1 μg/mL, 100 μL/well) overnight at 4° C. After washing, the plate was blocked with 1% BSA in PBS (200 μL/well) for 1 h at room temperature and subsequently washed. Next, biotinylated anti-cortisol (10 nM, 10 μL/well) in PBS and serial concentrations of cortisol standard (0, 0.001, 0.01, 0.1, 1, 10, 100 and 1,000 ng/mL,100 μL/well) prepared in Sample Diluent were added to the wells. The immunoreaction was allowed to proceed for 1 h. After washing, the plate was incubated with streptavidin-horseradish peroxidase (HRP((2 nM, 100 μL/well) for 30 min. After another washing, 3,3′,5,5′-tetramethylbenzidine (TMB) substrate (100 μL/well) was added and the plate was incubated for 15 min. Next, 50 μL of 1 mol/L hydrochloric acid was added to each well to stop the enzymatic reaction. Finally, the optical density (OD) was recorded at 450 nm on a Tecan Infinite M200 Plate Reader.
as §1

[5] = system: anti-PGE2 antibody; test: Single-plex competitive single molecule array assay for PGE2 (BSA-PGE2 beads)
Description: as §2, §3, §1

[6] = system: anti-PGE2 antibody; test: Two-plex single molecule array assay for PGE2 and cortisol: PGE2; settings: simultaneous detection of cortisol and PGE2
Description: as §2, §3, §1

IC50 for cortisol, single-plex assay [1] [ng/mL] | IC50 for cortisol, multiplex assay with IL-6 [2] [ng/mL] | IC50 for cortisol, two-plex assay [3] [ng/mL] | ELISA IC50 [4] [ng/mL] | IC50 for PGE2, single-plex assay [5] [ng/mL] | IC50 for PGE2, two-plex assay [6] [ng/mL] | Compound
0.54 | 0.57 | 0.46 | 170.23 |  |  | C[C@]12CCC(=O)C=C1CC[C@@H]1[C@@H]2[C@@H](O)C[C@@]2(C)[C@H]1CC[C@]2(O)C(=O)CO [cortisol]
 |  |  |  | 0.37 | 0.7 | CCCCC[C@H](O)/C=C/[C@H]1[C@H](O)CC(=O)[C@@H]1C/C=C\CCCC(=O)O [PGE2, Prostaglandin E2]
